Conditions: 101.33 kPa, Crystal, Vacuum adiabatic calorimetry

O=C([O-])[O-].[Zn+2] [zinc(II) carbonate]
Conditions	molar entropy [J/K/mol]
5 K	0.00258
10 K	0.02006
15 K	0.07123
20 K	0.1881
25 K	0.41
30 K	0.7694
35 K	1.284
40 K	1.959
45 K	2.788
50 K	3.759
55 K	4.862
60 K	6.081
65 K	7.403
70 K	8.815
75 K	10.3
80 K	11.85
85 K	13.45
90 K	15.1
95 K	16.78
100 K	18.49
105 K	20.21
110 K	21.95
115 K	23.7
120 K	25.45
130 K	28.95
140 K	32.44
150 K	35.9
160 K	39.32
170 K	42.69
180 K	46.02
190 K	49.28
200 K	52.5
210 K	55.65
220 K	58.75
230 K	61.8
240 K	64.79
250 K	67.73
260 K	70.62
270 K	73.48
273.15 K	74.37
280 K	76.29
290 K	79.06
298.15 K	81.28
300 K	81.78
310 K	84.45
320 K	87.09

From the NIST ThermoML archive (doi:10.1016/j.jct.2012.02.028)
